# Reference: patent US6582940B1, “Method for producing calcium pantothenate” (Daiichi Fine Chemical Co., Ltd., priority 1998, dated 2003)
# Experiment: hygroscopicity analysis (desiccator, relative humidity 82%, 40° C., 24 hours)
# Format: physicochemical
# Details: for amount of absorbed moisture: 1 g sample, relative humidity 82% (saturated aqueous potassium chloride), after 24 hours; for deliquescence in the hygroscopicity analysis: relative humidity 82%, 24 hours, macroscopic observation
# Method: The term “nondeliquescent” used in the specification means that a substance is nonhygroscopic (in general, an amount of absorbed moisture is 5% or less at 40° C. under 82% of relative humidity after 24 hours), or not suffered from deliquescence by moisture absorption. More specifically, the term means that no deliquescence is macroscopically observed in a part or whole surface of a solid calcium pantothenate at 40° C. under 82% of the relative humidity within 24 hours. The calcium pantothenate of the present invention comprising an amount of a crystalline component sufficient to prevent deliquescence is an example of the nondeliquescent and crystalline calcium pantothenate.
# This product was further dried by using a normal-pressure warm-air dryer at 80° C. for 30 minutes and milled in a mortar, and then sized through a filter No.83 and subjected to a hygroscopicity analysis. The sample (1 g) was placed in a desiccator adjusted to relative humidity of 82% with a saturated aqueous solution of potassium chloride at 40° C., and an amount of absorbed moisture after 24 hours was determined. […] An amorphous was dried in the same manner and the amount of absorbed moisture was determined under the same conditions. […] Moreover, the powder X-ray diffraction analysis of the aforementioned product gave the characteristic peak indicated by the arrow, which verified that the product was a crystalline substance containing the monohydrate (FIG. 1).
substance,measurement,value
calcium pantothenate [Example 2],amount of absorbed moisture,0.7%
same,deliquescence in the hygroscopicity analysis,no deliquescence was observed
calcium pantothenate [Example 3],amount of absorbed moisture,0.8%
same,deliquescence in the hygroscopicity analysis,no deliquescence was observed
"monocalcium bis[(R)-N-(2,4-dihydroxy-3,3-dimethylbutyryl)-β-alaninate] [amorphous calcium pantothenate, reference compound]",amount of absorbed moisture,7.0%
same,deliquescence in the hygroscopicity analysis,macroscopically apparent deliquescence of the surface was observed
